Results from ChEMBL document CHEMBL3232861, “Metabolites of antroquinonol found in rat urine following oral administration” (J Nat Prod, 2014).

Columns and labels:
Type in all cases: ADME, organism-based
Set-up in all cases: dose 200 mg/kg, route oral
Conditions in all cases: in vivo
[1] = Drug excretion in Wistar rat urine treated with antroquinonol at 200 mg/kg, po administered via gavage measured after 24 hrs by HPLC-SPE-TT-NMR analysis
[2] = Drug excretion in Wistar rat urine assessed as (E)-6-((1R,2R,6R)-2-Hydroxy-3,4-dimethoxy-6-methyl-5-oxocyclo-hex-3-enyl)-4-methylhex-4-enoic acid level at 200 mg/kg, po administered via gavage measured after 24 hrs by HPLC-SPE-TT-NMR analysis
[3] = Drug excretion in Wistar rat urine assessed as (E)-6-((1R,2R,6R)-2-Hydroxy-3,4-dimethoxy-6-methyl-5-oxocyclo-hex-3-enyl)-4-methylhex-3-enoic acid level at 200 mg/kg, po administered via gavage measured after 24 hrs by HPLC-SPE-TT-NMR analysis
[4] = Drug excretion in Wistar rat urine assessed as (E)-6-((1R,2R ,6R)-2,5-Dihy droxy-4-methoxy-6-methyl-3-oxocyclo-hex-4-enyl)-4-methylhex-3-enoic acid level at 200 mg/kg, po administered via gavage measured after 24 hrs by HPLC-SPE-TT-NMR analysis
[5] = Drug excretion in Wistar rat urine assessed as (E)-6-((1R,2R ,6R)-2,5-Dihy droxy-4-methoxy-6-methyl-3-oxocyclo-hex-4-enyl)-4-methylhex-4-enoic acid level at 200 mg/kg, po administered via gavage measured after 24 hrs by HPLC-SPE-TT-NMR analysis

COC1=C(OC)[C@H](O)[C@H](C/C=C(\C)CCC(=O)O)[C@@H](C)C1=O
Drug excretion [1]: metabolite_detected

COC1=C(OC)[C@H](O)[C@H](CC/C(C)=C/CC(=O)O)[C@@H](C)C1=O
Drug excretion [1]: metabolite_detected

COC1=C(O)[C@H](C)[C@@H](CC/C(C)=C/CC(=O)O)[C@@H](O)C1=O
Drug excretion [1]: metabolite_detected

COC1=C(O)[C@H](C)[C@@H](C/C=C(\C)CCC(=O)O)[C@@H](O)C1=O
Drug excretion [1]: metabolite_detected

COC1=C(OC)[C@H](O)[C@H](C/C=C(\C)CC/C=C(\C)CCC=C(C)C)[C@@H](C)C1=O [ANTROQUINONOL]
Drug excretion [2]: metabolite_detected
Drug excretion [3]: metabolite_detected
Drug excretion [4]: metabolite_detected
Drug excretion [5]: metabolite_detected
